Test results published in patent US20250296953A1, “3,4-THIAZOLO-STEROIDS AND METHODS OF MAKING AND USING THE SAME” (Arkansas State University - Jonesboro, priority 2018, published 2025).

How the values were obtained:
[1] = system: 60 different human tumor cell lines; assay: NCI Development Therapeutics Program 60 cell line screen, one dose; format: cell-based
SK-MEL-25 = assay: Melanoma cytotoxicity assay (resazurin); format: cell-based; conditions: SK-MEL-25 melanoma cells, 24 hours with compound, resazurin; concentration not given
Procedure, shortened: (§1)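 Cells are plated at roughly 4000 per well and allowed 24 h before compound addition in triplicate. After a further 24 h, resazurin is added for 6 h and fluorescence measured; percent viability is normalized to DMSO-treated wells.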

SK-MEL-28 = assay: Melanoma cytotoxicity assay (resazurin); format: cell-based; conditions: SK-MEL-28 melanoma cells, 24 hours with compound, resazurin; concentration not given
Procedure, shortened: as §1

SK-MEL-5 = assay: Melanoma cytotoxicity assay (resazurin); format: cell-based; conditions: SK-MEL-5 melanoma cells, 24 hours with compound, resazurin; concentration not given
Procedure, shortened: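 ~4000 cells/well, 24 h attach, 37° C/5% CO2; cpd triplicate, 24 h; resazurin 6 h; fluor 544/590 nm. % viability vs DMSO after media-blank subtraction; IC50 from dilution series, sigmoidal fit.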

NCI-H522 (NSCLC) = assay: NCI 60 one dose screen; format: cell-based, human; conditions: Non-small Cell Lung Cancer
HCT-15 (Colon Cancer) = assay: NCI 60 one dose screen; format: cell-based, human
SF-295 = assay: NCI 60 one dose screen; format: cell-based, human; conditions: for Growth Percent: one dose, CNS Cancer, SF-295
SF-539 = assay: NCI 60 one dose screen; format: cell-based, human; conditions: for Growth Percent: one dose, CNS Cancer, SF-539
[2] = Non-small Cell Lung Cancer, A549/ATCC
[3] = Non-small Cell Lung Cancer, EKVX
[4] = Non-small Cell Lung Cancer, HOP-62
[5] = Non-small Cell Lung Cancer, HOP-92
[6] = Non-small Cell Lung Cancer, NCI-H23
[7] = Non-small Cell Lung Cancer, NCI-H226
[8] = Non-small Cell Lung Cancer, NCI-H322M
[9] = Non-small Cell Lung Cancer, NCI-H460

Compound: CN(c1ccccc1)c1nc2c(s1)CC[C@@]1(C)C2=CC[C@@H]2[C@@H]1CC[C@]1(C)C(=O)CC[C@@H]21 [IIa.6, (1S,2R,13R,14S,18S)-2,18-dimethyl-7-(N-methylanilino)-6-thia-8-azapentacyclo[11.7.0.02,10.05,9.014,18]icosa-5(9),7,10-trien-17-one]
- Growth Percent ([1]; Breast Cancer, BT-549): 45.19%
- Growth Percent ([1]; Breast Cancer, HS 578T): 54.53%
- Growth Percent ([1]; Breast Cancer, MCF7): 32.55%
- Growth Percent ([1]; Breast Cancer, MDA-MB-231/ATCC): 68.22%
- Growth Percent ([1]; Breast Cancer, MDA-MB-468): 29.56%
- Growth Percent ([1]; Breast Cancer, T-47D): 65.84%
- Growth Percent ([1]; CNS Cancer, SF-268): 73.87%
- Growth Percent ([1]; CNS Cancer, SNB-19): 54.72%
- Growth Percent ([1]; CNS Cancer, SNB-75): 73.17%
- Growth Percent ([1]; CNS Cancer, U251): 36.99%
- Growth Percent ([1]; Colon Cancer, COLO 205): 48.79%
- Growth Percent ([1]; Colon Cancer, HCC-2998): 82.14%
- Growth Percent ([1]; Colon Cancer, HCT-116): 32.71%
- Growth Percent ([1]; Colon Cancer, HT29): 10.25%
- Growth Percent ([1]; Colon Cancer, KM12): 33.11%
- Growth Percent ([1]; Colon Cancer, SW-620): 44.14%
- Growth Percent ([1]; Leukemia, CCRF-CEM): 44.17%
- Growth Percent ([1]; Leukemia, HL-60(TB)): 44.55%
- Growth Percent ([1]; Leukemia, MOLT-4): 45.63%
- Growth Percent ([1]; Leukemia, RPMI-8226): 48.36%
- Growth Percent ([1]; Leukemia, SR): 31.74%
- Growth Percent ([1]; Melanoma, LOX IMVI): 66.30%
- Growth Percent ([1]; Melanoma, M14): 41.12%
- Growth Percent ([1]; Melanoma, MALME-3M): 55.43%
- Growth Percent ([1]; Melanoma, MDA-MB-435): 2.34%
- Growth Percent ([1]; Melanoma, SK-MEL-2): 49.76%
- Growth Percent ([1]; Melanoma, SK-MEL-5): 32.53%
- Growth Percent ([1]; Melanoma, SK-MEL-28): 72.19%
- Growth Percent ([1]; Melanoma, UACC-62): 38.23%
- Growth Percent ([1]; Melanoma, UACC-257): 67.13%
- Growth Percent [1, 2]: 47.72%
- Growth Percent [1, 3]: 78.34%
- Growth Percent [1, 4]: 70.07%
- Growth Percent [1, 5]: 78.79%
- Growth Percent [1, 6]: 79.64%
- Growth Percent [1, 7]: 83.39%
- Growth Percent [1, 8]: 89.66%
- Growth Percent [1, 9]: 38.69%
- Growth Percent ([1]; Ovarian Cancer, IGROV1): 67.27%
- Growth Percent ([1]; Ovarian Cancer, NCI/ADR-RES): 43.96%
- Growth Percent ([1]; Ovarian Cancer, OVCAR-3): 36.20%
- Growth Percent ([1]; Ovarian Cancer, OVCAR-4): 83.97%
- Growth Percent ([1]; Ovarian Cancer, OVCAR-5): 98.72%
- Growth Percent ([1]; Ovarian Cancer, OVCAR-8): 76.81%
- Growth Percent ([1]; Ovarian Cancer, SK-OV-3): 79.14%
- Growth Percent ([1]; Prostate Cancer, DU-145): 79.22%
- Growth Percent ([1]; Prostate Cancer, PC-3): 71.01%
- Growth Percent ([1]; Renal Cancer, 786-0): 58.79%
- Growth Percent ([1]; Renal Cancer, A498): 50.67%
- Growth Percent ([1]; Renal Cancer, ACHN): 93.66%
- Growth Percent ([1]; Renal Cancer, CAKI-1): 61.11%
- Growth Percent ([1]; Renal Cancer, RXF 393): 79.66%
- Growth Percent ([1]; Renal Cancer, SN12C): 77.26%
- Growth Percent ([1]; Renal Cancer, TK-10): 91.08%
- Growth Percent ([1]; Renal Cancer, UO-31): 79.34%
- SK-MEL-25 (% inhibition) (SK-MEL-25): 60%
- SK-MEL-28 (% inhibition) (SK-MEL-28): 60%
- SK-MEL-5 (% inhibition) (SK-MEL-5): 63%
- Growth Percent (NCI-H522 (NSCLC)): 8.26%
- Growth Percent (HCT-15 (Colon Cancer)): 35.23%
- Growth Percent (SF-295): 42.68%
- Growth Percent (SF-539): 51.35%

Compound: (1S,2R,13R,14S,18S)-7-(3-fluorophenyl)-2,18-dimethyl-8-thia-6-azapentacyclo[11.7.0.02,10.05,9.014,18]icosa-5(9),7,10-trien-17-one [II.12]
- Growth Percent ([1]; Breast Cancer, BT-549): 23.16%
- Growth Percent ([1]; Breast Cancer, HS 578T): 27.43%
- Growth Percent ([1]; Breast Cancer, MCF7): 10.76%
- Growth Percent ([1]; Breast Cancer, MDA-MB-231/ATCC): 62.02%
- Growth Percent ([1]; Breast Cancer, MDA-MB-468): 29.20%
- Growth Percent ([1]; Breast Cancer, T-47D): 3.07%
- Growth Percent ([1]; CNS Cancer, SF-268): 52.39%
- Growth Percent ([1]; CNS Cancer, SNB-19): 60.01%
- Growth Percent ([1]; CNS Cancer, SNB-75): 44.61%
- Growth Percent ([1]; CNS Cancer, U251): 18.77%
- Growth Percent ([1]; Colon Cancer, COLO 205): 44.55%
- Growth Percent ([1]; Colon Cancer, HCC-2998): 79.47%
- Growth Percent ([1]; Colon Cancer, HCT-116): 0.51%
- Growth Percent ([1]; Colon Cancer, HT29): 5.21%
- Growth Percent ([1]; Colon Cancer, KM12): 46.48%
- Growth Percent ([1]; Colon Cancer, SW-620): 3.81%
- Growth Percent ([1]; Leukemia, CCRF-CEM): 15.82%
- Growth Percent ([1]; Leukemia, HL-60(TB)): 34.18%
- Growth Percent ([1]; Leukemia, K-562): 7.01%
- Growth Percent ([1]; Leukemia, MOLT-4): 5.82%
- Growth Percent ([1]; Leukemia, RPMI-8226): −2.88%
- Growth Percent ([1]; Leukemia, SR): 5.11%
- Growth Percent ([1]; Melanoma, LOX IMVI): 1.34%
- Growth Percent ([1]; Melanoma, M14): 57.14%
- Growth Percent ([1]; Melanoma, MALME-3M): 37.62%
- Growth Percent ([1]; Melanoma, MDA-MB-435): 49.24%
- Growth Percent ([1]; Melanoma, SK-MEL-2): 32.06%
- Growth Percent ([1]; Melanoma, SK-MEL-5): 61.51%
- Growth Percent ([1]; Melanoma, SK-MEL-28): 48.00%
- Growth Percent ([1]; Melanoma, UACC-62): 34.85%
- Growth Percent ([1]; Melanoma, UACC-257): 77.45%
- Growth Percent [1, 2]: 55.01%
- Growth Percent [1, 3]: 68.33%
- Growth Percent [1, 4]: 50.54%
- Growth Percent [1, 5]: 74.28%
- Growth Percent [1, 6]: 62.70%
- Growth Percent [1, 7]: 65.84%
- Growth Percent [1, 8]: 69.34%
- Growth Percent [1, 9]: 53.88%
- Growth Percent ([1]; Ovarian Cancer, IGROV1): 0.60%
- Growth Percent ([1]; Ovarian Cancer, NCI/ADR-RES): 68.33%
- Growth Percent ([1]; Ovarian Cancer, OVCAR-3): 7.89%
- Growth Percent ([1]; Ovarian Cancer, OVCAR-4): 65.10%
- Growth Percent ([1]; Ovarian Cancer, OVCAR-5): 87.24%
- Growth Percent ([1]; Ovarian Cancer, OVCAR-8): 28.53%
- Growth Percent ([1]; Ovarian Cancer, SK-OV-3): 17.92%
- Growth Percent ([1]; Prostate Cancer, DU-145): 22.88%
- Growth Percent ([1]; Prostate Cancer, PC-3): 35.02%
- Growth Percent ([1]; Renal Cancer, 786-0): −10.07%
- Growth Percent ([1]; Renal Cancer, ACHN): 11.90%
- Growth Percent ([1]; Renal Cancer, CAKI-1): 36.88%
- Growth Percent ([1]; Renal Cancer, RXF 393): −22.47%
- Growth Percent ([1]; Renal Cancer, SN12C): 42.89%
- Growth Percent ([1]; Renal Cancer, TK-10): 24.03%
- Growth Percent ([1]; Renal Cancer, UO-31): 1.08%
- Growth Percent (NCI-H522 (NSCLC)): −36.55%
- Growth Percent (HCT-15 (Colon Cancer)): −38.17%
- mean growth percent (SF-295; SF-295 (CNS cancer panel), 10 μM): −18.91%
- Growth Percent (SF-295): −18.91%
- mean growth percent (SF-539; SF-539 (CNS cancer panel), 10 μM): −33.43%
- Growth Percent (SF-539): −33.43%
